Laboratory results: patent publication US20260109707A1, “HETEROBIFUNCTIONAL COMPOUNDS AND METHODS OF TREATING DISEASE” (Halda Therapeutics OpCo. Inc., priority 2022, published 2026)
Read-outs that look alike come from different tables or passages of the source.

How the values were obtained:
[1] = test system: T-Rex 293 cell line SC3 cells having increased expression of androgen receptor protein due to exposure to doxycycline; experiment: Cellular growth inhibition assay, T-Rex 293 SC3 cells with doxycycline (CellTiter-Glo, 72 hours); type: cell-based; details: T-Rex 293 SC3 cells with increased androgen receptor expression due to doxycycline (10 ng/mL)
Experimental: (§1) The following types of cells were prepared for this experiment: (i) a T-Rex 293 cell line having increased expression of androgen receptor protein due to exposure to doxycycline and (ii) a T-Rex 293 cell line lacking increased expression of androgen receptor protein. Ability of the test compounds to inhibit proliferation of the foregoing cell types was evaluated according to the procedures set forth below.
(§2) The doxycycline-inducible androgen receptor protein expressing cell line was established using the following protocol: T-Rex 293 cells were purchased from Invitrogen (Cat #R71007) and transfected using Lipofectamine 2000 with the wild-type androgen receptor protein sequence cloned into the pcDNA4/TO vector. Transfected cells were selected using 400 μg/mL Zeocin (Invitrogen Cat #R25001). Following selection, single clones were raised and maintained in Dulbecco's Modified Eagle Medium (DMEM) supplemented with 10% w/w Tetracycline-free fetal bovine serum (FBS) and 250 μg/mL Zeocin. Clones were analyzed for expression of androgen receptor protein in the presence and absence of 10 ng/mL doxycycline (Sigma Cat #D9891), and a single doxycycline-inducible clone (hereinafter “SC3”) was selected for use in downstream assays.
(§3) The SC3 cells were seeded on poly-D-lysine coated, black clear-bottom 384-well plates at 2500/well, in 25 μL Phenol Red Free Dulbecco's Modified Eagle Medium (DMEM) supplemented with 10% w/w charcoal-dextran treated fetal bovine serum (FBS) and 1% w/w pen-strep, with or without 10 ng/mL doxycycline. Pen-Strep is a commercially available mixture of penicillin G and streptomycin, which is used in mammalian cell culture media to prevent bacterial contamination. Phenol Red Free Dulbecco's Modified Eagle Medium (DMEM) supplemented with 10% w/w charcoal-dextran treated fetal bovine serum (FBS) and 1% w/w pen-strep, with or without 10 ng/mL doxycycline is herein referred to as Treatment Medium. Following seeding of cells in the plates, the plates were spun at 300×g for 30 seconds, then equilibrated to room temperature for 30 minutes, and then deposited in a humidified tissue culture incubator maintained at 37° C. with 5% CO2.
(§4) At 24 hours after seeding of the cells, dilutions of test compound were prepared in DMSO and dissolved in Treatment Medium, to achieve a final DMSO concentration of 0.5% w/w, thereby providing the Test Compound Solution. A 25 μL aliquot of the Test Compound Solution was added to cells in the well plates. An equal volume of a solution containing DMSO and Treatment Medium was used as a negative control. Following treatment of cells with Test Compound Solution or said equal volume of a solution containing DMSO and Treatment Medium, the plates were spun at 300×g for 30 seconds, and then left in an incubator for 72 hours.
(§5) At the end of the treatment duration, cell viability was quantified with CellTiter-Glo 2.0 reagent (Promega Cat #G9243). For this purpose, plates were equilibrated to room temperature for 30 minutes, and then 25 μL of CellTiter-Glo 2.0 reagent was added to cells in the plate wells. Plates were then agitated on a shaker for two minutes at 500 rpm and subsequently incubated at room temperature for 10 minutes. Following incubation, the plates were spun at 3000×g for 30 seconds, then sealed with an optical adhesive cover, and luminescence readings were measured with an EnVision Plate Reader.
(§6) Data was normalized using zero luminescence for baseline. A four-parameter non-linear regression curve fit was applied to dose-response data in GraphPad Prism data analysis software to determine the half-maximal growth inhibitory concentration (GI50) for each test compound.

[2] = test system: T-Rex 293 cell line SC3 cells lacking increased expression of androgen receptor protein; experiment: Cellular growth inhibition assay, T-Rex 293 SC3 cells without doxycycline (CellTiter-Glo, 72 hours); type: cell-based; details: T-Rex 293 cell line SC3 cells not exposed to doxycycline (lacking increased androgen receptor expression)
Experimental: as §1, §2, §3, §4, §5, §6

VCaP cells = experiment: Cellular growth inhibition assay for VCaP cells (CellTiter-Glo, 72 hours); type: cell-based, human
Experimental: VCaP cells were purchased from American Type Cell Culture (ATCC Cat #CRL2876) and then seeded on poly-D-lysine coated, black clear-bottom 384-well plates at 5000/well in 25 μL Dulbecco's Modified Eagle Medium (DMEM) supplemented with 10% w/w Fetal bovine serum (FBS) and 1% w/w Pen-Strep. Pen-Strep is a commercially available mixture of penicillin G and streptomycin, which is used in mammalian cell culture media to prevent bacterial contamination. Dulbecco's Modified Eagle Medium (DMEM) supplemented with 10% w/w fetal bovine serum (FBS) and 1% w/w Pen-Strep is herein referred to as Treatment Medium. Following seeding of cells in the plates, the plates were spun at 300×g for 30 seconds, then equilibrated to room temperature for 30 minutes, and then deposited in a humidified tissue culture incubator maintained at 37° C. with 5% C0-2.
as §4, §5, §6

Structure (SMILES) | GI50 ([1]; 72 h) | GI50 ([2]; 72 h) | GI50 (VCaP cells; Homo sapiens, VCaP, 72 h) | GI50 [1] | GI50 (VCaP cells) | GI50 [2]
Cc1sc2c(c1C)C(c1ccc(N3CCC4(CC3)CCN(c3ccc(C(=O)N[C@H]5CC[C@H](Oc6ccc(C#N)c(Cl)c6)CC5)nn3)C4)nc1)=NCc1nnc(C)n1-2 [I-449] | < 500 nM | > 3000 nM | > 3000 nM | – | – | –
Cc1sc2c(c1C)C(c1ccc(C3CC(N4CCN(c5ccc(C(=O)N[C@H]6CC[C@H](Oc7ccc(C#N)c(Cl)c7)CC6)nn5)CC4)C3)cc1)=N[C@@H](C)c1nnc(C)n1-2 (stereo partly drawn) [I-589] | < 500 nM | < 500 nM | < 500 nM | – | – | –
Cc1sc2c(c1C)C(c1ccc(C#CC3CC4(C3)CN(c3ccc(C(=O)N[C@H]5CC[C@H](Oc6ccc(C#N)c(Cl)c6)CC5)nn3)C4)cc1)=NC(C(F)(F)F)c1nnc(C)n1-2 (stereo partly drawn) [I-741] | – | > 3000 nM | – | < 500 nM | < 500 nM | –
Cc1sc2c(c1C)C(c1ccc(C3CCC4(CC3)CCN(c3ccc(C(=O)N[C@H]5CC[C@H](Oc6ccc(C#N)c(Cl)c6)CC5)nn3)C4)nc1)=NC1(CC1)c1nnc(C)n1-2 (stereo partly drawn) [I-607] | < 500 nM | – | – | – | > 3000 nM | > 3000 nM
Cc1sc2c(c1C)C(c1ccc(OC3CCC4(CCCN(c5ccc(C(=O)N[C@H]6CC[C@H](Oc7ccc(C#N)c(Cl)c7)CC6)nn5)C4)C3)cc1)=NC1(CC1)c1nnc(C)n1-2 (stereo partly drawn) [I-526] | – | – | – | < 500 nM | < 500 nM | 500 to 1500 nM
Cc1sc2c(c1C)C(c1ccc(C3CCC4(CCN(c5ccc(C(=O)N[C@H]6CC[C@H](Oc7ccc(C#N)c(Cl)c7)CC6)nn5)C4)C3)cc1)=N[C@@H](C)c1nnc(C)n1-2 (stereo partly drawn) [I-822, N-[4-(3-chloro-4-cyano-phenoxy)cyclohexyl]-6-[8-[4-[(9S)-4,5,9,13-tetramethyl-3-thia-1,8,11,12-tetrazatricyclo[8.3.0.02,6]trideca-2(6),4,7,10,12-pentaen-7-yl]phenyl]-2-azaspiro[4.4]nonan-2-yl]pyridazine-3-carboxamide] | – | – | – | < 500 nM | < 500 nM | < 500 nM
Cc1sc2c(c1C)C(c1ccc(OCC3CC4(CCCN(c5ccc(C(=O)N[C@H]6CC[C@H](Oc7ccc(C#N)c(Cl)c7)CC6)nn5)C4)C3)cc1)=NCc1nnc(C)n1-2 (stereo partly drawn) [I-446] | – | > 3000 nM | – | < 500 nM | < 500 nM | –
Cc1sc2c(c1C)C(c1ccc(NCC3CCN(c4ncc(C(=O)N[C@H]5CC[C@H](Oc6ccc(C#N)c(Cl)c6)CC5)cn4)CC3)cc1)=NC(Cc1ncco1)c1nnc(C)n1-2 (stereo partly drawn) [I-786] | < 500 nM | < 500 nM | < 500 nM | – | – | –
Cc1sc2c(c1C)C(c1cccc(N3CC4(CCN(c5ccc(C(=O)N[C@H]6CC[C@H](Oc7ccc(C#N)c(Cl)c7)CC6)nn5)CC4)C3)c1)=N[C@@H](C)c1nnc(C)n1-2 [I-683] | > 3000 nM | > 3000 nM | > 3000 nM | – | – | –
COCC[C@@H]1N=C(c2ccc(C3CCC4(CC3)CCN(c3ccc(C(=O)N[C@H]5CC[C@H](Oc6ccc(C#N)c(Cl)c6)CC5)nn3)C4)cc2)c2c(sc(C)c2C)-n2c(C)nnc21 (single isomer, unassigned) [I-618] | – | – | – | < 500 nM | < 500 nM | < 500 nM
Cc1sc2c(c1C)C(c1ccc(N3CC(CC4CCCN(c5ccc(C(=O)N[C@H]6CC[C@H](Oc7ccc(C#N)c(Cl)c7)CC6)nn5)C4)C3)cc1)=N[C@@H](C)c1nnc(C)n1-2 (stereo partly drawn) [I-577] | – | – | – | < 500 nM | 500 to 1500 nM | < 500 nM
Cc1sc2c(c1C)C(c1ccc(OC3CCC4(CCN(c5ccc(C(=O)N[C@H]6CC[C@H](Oc7ccc(C#N)c(Cl)c7)CC6)nn5)C4)C3)cc1)=N[C@@H](C)c1nnc(C)n1-2 (stereo partly drawn) [I-734] | – | – | – | < 500 nM | < 500 nM | < 500 nM
Cc1sc2c(c1C)C(c1ccc(N3CC4(CC(Cc5ccc(C(=O)N[C@H]6CC[C@H](Oc7ccc(C#N)c(Cl)c7)CC6)nn5)C4)C3)cc1)=N[C@@H](Cc1ncco1)c1nnc(C)n1-2 [I-469] | < 500 nM | > 3000 nM | < 500 nM | – | – | –
Cc1sc2c(c1C)C(c1ccc(CC3CCC4(CCCN(c5ccc(C(=O)N[C@H]6CC[C@H](Oc7ccc(C#N)c(Cl)c7)CC6)nn5)C4)C3)cn1)=N[C@@H](C)c1nnc(C)n1-2 (stereo partly drawn) [I-636] | – | – | – | < 500 nM | < 500 nM | 500 to 1500 nM
Cc1sc2c(c1C)C(c1ccc(N3C[C@@H]4CN(c5ccc(C(=O)N[C@H]6CC[C@H](Oc7ccc(C#N)c(Cl)c7)CC6)nn5)C[C@@H]4C3)cc1)=N[C@@H](C)c1nnc(C)n1-2 [I-511] | < 500 nM | < 500 nM | < 500 nM | – | – | –
Cc1sc2c(c1C)C(c1ccc(NCC3CCCCN3c3ncc(C(=O)N[C@H]4CC[C@H](Oc5ccc(C#N)c(Cl)c5)CC4)cn3)cc1)=NC(Cc1ncco1)c1nnc(C)n1-2 (stereo partly drawn) [I-787] | < 500 nM | < 500 nM | 500 to 1500 nM | – | – | –
Cc1sc2c(c1C)C(c1ccc(COC3CCC4(CCCN(c5ccc(C(=O)N[C@H]6CC[C@H](Oc7ccc(C#N)c(Cl)c7)CC6)nn5)C4)C3)cc1)=NC1(CC1)c1nnc(C)n1-2 (stereo partly drawn) [I-509] | – | – | > 3000 nM | < 500 nM | – | > 3000 nM
Cc1sc2c(c1C)C(c1ccc(CC3CCC4(CCCN(c5ccc(C(=O)N[C@H]6CC[C@H](Oc7ccc(C#N)c(Cl)c7)CC6)nn5)C4)C3)cc1)=N[C@@H](C)c1nnc(C)n1-2 (stereo partly drawn) [I-583] | – | – | – | < 500 nM | 1500 to 3000 nM | < 500 nM
Cc1sc2c(c1C)C(c1ccc(N3CC4(CCC(Cc5ccc(C(=O)N[C@H]6CC[C@H](Oc7ccc(C#N)c(Cl)c7)CC6)nn5)CC4)C3)cc1)=N[C@@H](Cc1ncco1)c1nnc(C)n1-2 [I-515] | < 500 nM | > 3000 nM | < 500 nM | – | – | –
Cc1sc2c(c1C)C(c1ccc(OC3(C)CC4(CN(c5ccc(C(=O)N[C@H]6CC[C@H](Oc7ccc(C#N)c(Cl)c7)CC6)nn5)C4)C3)cc1)=N[C@@H](C)c1nnc(C)n1-2 [I-595] | < 500 nM | < 500 nM | 500 to 1500 nM | – | – | –
COC[C@@H]1N=C(c2ccc(CC3CC4(CCN(c5ccc(C(=O)N[C@H]6CC[C@H](Oc7ccc(C#N)c(Cl)c7)CC6)nn5)CC4)C3)cc2)c2c(sc(C)c2C)-n2c(C)nnc21 [I-692] | < 500 nM | < 500 nM | < 500 nM | – | – | –
Cc1sc2c(c1C)C(c1ccc(N3CCC4(CC3)CCN(c3ccc(C(=O)N[C@H]5CC[C@H](Oc6ccc(C#N)c(Cl)c6)CC5)nn3)C4)nc1)=NC1(CC1)c1nnc(C)n1-2 [I-477] | < 500 nM | 500 to 1500 nM | 1500 to 3000 nM | – | – | –
CC[C@@H]1N=C(c2ccc(N3CCC4(CC3)CCN(c3ccc(C(=O)N[C@H]5CC[C@H](Oc6ccc(C#N)c(Cl)c6)CC5)nn3)C4)cc2)c2c(sc(C)c2C)-n2c(C)nnc21 [I-530] | < 500 nM | < 500 nM | > 3000 nM | – | – | –
Cc1sc2c(c1C)C(c1ccc(C3CCC4(CC3)CCN(c3ccc(C(=O)N[C@H]5CC[C@H](Oc6ccc(C#N)c(Cl)c6)CC5)nn3)C4)cc1)=NC1(CC1)c1nnc(C)n1-2 (stereo partly drawn) [I-517] | < 500 nM | > 3000 nM | – | – | > 3000 nM | –
Cc1sc2c(c1C)C(c1ccc(C3CCC4(CCN(c5ccc(C(=O)N[C@H]6CC[C@H](Oc7ccc(C#N)c(Cl)c7)CC6)nn5)CC4)C3)cc1)=NC(C(F)(F)F)c1nnc(C)n1-2 (stereo partly drawn) [I-761] | – | – | – | > 3000 nM | < 500 nM | > 3000 nM
